Publication PMC6117411, “De novo Transcriptome Characterization of Rhodomyrtus tomentosa Leaves and Identification of Genes Involved in α/β-Pinene and β-Caryophyllene Biosynthesis” (Frontiers in Plant Science, 2018)

Legend:
Type in all cases: biochemical
Details in all cases: 25 mM HEPES pH 7.0, 10 mM MgCl2, 5 mM DTT, 10 mM substrate, 30 C, 30 min
[1] = target: T1, RtTPS3 (Rhodomyrtus tomentosa, UniProt A0A385J6Y9); experiment: product formation by GC-MS and chiral GC-FID
T1 construct: gene TPS3; 52 residues upstream of RRX8W motif; TPS-a subfamily
T1 sequence (A0A385J6Y9 1-597): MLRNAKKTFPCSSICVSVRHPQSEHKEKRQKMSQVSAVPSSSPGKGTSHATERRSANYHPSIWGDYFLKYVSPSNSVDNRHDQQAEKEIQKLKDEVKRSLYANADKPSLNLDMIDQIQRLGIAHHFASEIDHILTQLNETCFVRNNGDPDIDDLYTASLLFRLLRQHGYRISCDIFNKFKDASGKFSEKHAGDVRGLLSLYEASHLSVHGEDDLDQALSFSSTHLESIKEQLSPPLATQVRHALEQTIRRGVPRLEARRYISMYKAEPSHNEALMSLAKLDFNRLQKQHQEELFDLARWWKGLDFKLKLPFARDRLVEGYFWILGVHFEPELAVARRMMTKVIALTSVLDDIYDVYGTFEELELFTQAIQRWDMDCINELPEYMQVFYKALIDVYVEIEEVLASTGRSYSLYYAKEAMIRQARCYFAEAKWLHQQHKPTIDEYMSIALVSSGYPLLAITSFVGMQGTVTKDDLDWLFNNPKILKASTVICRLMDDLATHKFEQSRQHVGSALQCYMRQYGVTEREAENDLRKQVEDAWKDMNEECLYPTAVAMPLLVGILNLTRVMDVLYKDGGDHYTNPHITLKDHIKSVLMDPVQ

[2] = target: T2, RtTPS1 (Rhodomyrtus tomentosa, UniProt A0A385J6X8); experiment: product formation by GC-MS and chiral GC-FID
T2 construct: gene TPS1; 38 residues upstream of RRX8W motif; TPS-b subfamily
T2 sequence (A0A385J6X8 1-581): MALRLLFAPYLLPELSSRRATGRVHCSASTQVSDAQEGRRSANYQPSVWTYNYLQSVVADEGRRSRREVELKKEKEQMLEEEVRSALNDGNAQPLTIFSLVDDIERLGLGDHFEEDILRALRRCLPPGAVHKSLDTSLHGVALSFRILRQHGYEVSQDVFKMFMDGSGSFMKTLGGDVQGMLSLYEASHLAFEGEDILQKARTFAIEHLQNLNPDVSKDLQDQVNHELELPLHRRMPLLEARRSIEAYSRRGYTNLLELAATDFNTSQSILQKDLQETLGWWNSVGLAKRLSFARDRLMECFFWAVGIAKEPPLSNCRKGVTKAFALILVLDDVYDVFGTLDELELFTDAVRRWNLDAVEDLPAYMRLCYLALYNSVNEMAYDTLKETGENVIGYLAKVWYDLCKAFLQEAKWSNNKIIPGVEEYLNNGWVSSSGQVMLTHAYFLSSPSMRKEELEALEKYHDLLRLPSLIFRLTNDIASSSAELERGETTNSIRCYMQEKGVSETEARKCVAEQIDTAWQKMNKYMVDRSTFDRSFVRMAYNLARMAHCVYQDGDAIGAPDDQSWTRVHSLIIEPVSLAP

[3] = target: T3, RtTPS2 (Rhodomyrtus tomentosa, UniProt A0A385J6Y6); experiment: product formation by GC-MS and chiral GC-FID
T3 construct: gene TPS2; TPS-b subfamily
T3 sequence (A0A385J6Y6 1-599): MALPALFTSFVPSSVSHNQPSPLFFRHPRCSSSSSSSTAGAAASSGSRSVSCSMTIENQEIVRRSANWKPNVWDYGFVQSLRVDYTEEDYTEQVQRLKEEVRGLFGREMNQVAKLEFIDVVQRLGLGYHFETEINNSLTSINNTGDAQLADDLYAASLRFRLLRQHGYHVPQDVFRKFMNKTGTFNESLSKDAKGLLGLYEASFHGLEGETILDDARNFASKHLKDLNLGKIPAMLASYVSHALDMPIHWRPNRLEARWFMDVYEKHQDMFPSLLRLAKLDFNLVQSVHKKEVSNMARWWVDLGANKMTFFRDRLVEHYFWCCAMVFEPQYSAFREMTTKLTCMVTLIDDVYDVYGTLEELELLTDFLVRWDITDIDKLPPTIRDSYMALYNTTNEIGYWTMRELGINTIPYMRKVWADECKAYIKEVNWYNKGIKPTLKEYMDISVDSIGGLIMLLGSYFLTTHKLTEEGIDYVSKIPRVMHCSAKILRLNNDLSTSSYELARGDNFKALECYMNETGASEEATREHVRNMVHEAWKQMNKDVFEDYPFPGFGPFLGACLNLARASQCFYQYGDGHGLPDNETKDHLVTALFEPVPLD

[4] = target: T4, RtTPS4 (Rhodomyrtus tomentosa, UniProt A0A385J6Y5); experiment: product formation by GC-MS and chiral GC-FID
T4 construct: gene TPS4; 48 residues upstream of RRX8W motif; TPS-a subfamily
T4 sequence (A0A385J6Y5 1-594): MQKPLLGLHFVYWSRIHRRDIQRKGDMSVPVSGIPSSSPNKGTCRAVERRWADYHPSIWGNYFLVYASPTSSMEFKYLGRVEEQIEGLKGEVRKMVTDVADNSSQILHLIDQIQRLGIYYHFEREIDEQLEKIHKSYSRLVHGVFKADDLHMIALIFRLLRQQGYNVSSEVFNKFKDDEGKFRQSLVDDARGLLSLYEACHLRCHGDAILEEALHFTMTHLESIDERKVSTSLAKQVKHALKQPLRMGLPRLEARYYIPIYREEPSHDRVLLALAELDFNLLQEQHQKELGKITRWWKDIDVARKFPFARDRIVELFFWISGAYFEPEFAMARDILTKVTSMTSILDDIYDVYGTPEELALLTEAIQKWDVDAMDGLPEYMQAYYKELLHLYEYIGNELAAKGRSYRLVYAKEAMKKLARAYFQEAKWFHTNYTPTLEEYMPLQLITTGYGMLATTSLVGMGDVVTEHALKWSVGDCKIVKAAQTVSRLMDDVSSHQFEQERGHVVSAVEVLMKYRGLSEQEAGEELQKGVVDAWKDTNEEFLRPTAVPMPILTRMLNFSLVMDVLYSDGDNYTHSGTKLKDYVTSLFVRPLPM

[5] = target: T1, RtTPS3; experiment: product formation by GC-MS
[6] = target: T2, RtTPS1; experiment: product formation by GC-MS

Row | SMILES | product formation by GC-MS and chiral GC-FID [1] | product formation by GC-MS and chiral GC-FID [2] | product formation by GC-MS and chiral GC-FID [3] | product formation by GC-MS and chiral GC-FID [4] | product formation by GC-MS [5] | product formation by GC-MS [6]
1 | CC(C)=CCC/C(C)=C/COP(=O)(O)OP(=O)(O)O [GPP] | RtTPS1-4 produce mainly (+)-α-pinene and (+)-β-pinene | RtTPS1-4 produce mainly (+)-α-pinene and (+)-β-pinene | RtTPS1-4 produce mainly (+)-α-pinene and (+)-β-pinene | RtTPS1-4 produce mainly (+)-α-pinene and (+)-β-pinene | – | –
2 | CC(C)=CCC/C(C)=C/CC/C(C)=C/COP(=O)(O)OP(=O)(O)O [FPP] | – | – | – | – | RtTPS1 and RtTPS3 are also active with FPP, producing β-caryophyllene | RtTPS1 and RtTPS3 are also active with FPP, producing β-caryophyllene
